Measured values reported in PubChem BioAssay AID624029 (Broad Institute, 2012).
Calls of active or inactive are those of the source.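 The calls were made as follows: active = compounds lowering HDL uptake fluorescence with a fitted half-maximal potency at most twice the top tested dose; inconclusive = flat partial inhibition of 30 to 70% or an unreliable fit; inactive = the rest.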

The molecules below were run against Scavenger receptor class B member 1 (Mus musculus) (UniProt Q61009) (assay: inhibitors of SR-BI-mediated HDL uptake, dose response, cell-based, ldlA[mSR-BI] CHO, DiI fluorescence, dry powder, set 10 (AID 624029)). Conditions: 3 h.
Chain of Scavenger receptor class B member 1 (Mus musculus) (Q61009 whole entry, looked up): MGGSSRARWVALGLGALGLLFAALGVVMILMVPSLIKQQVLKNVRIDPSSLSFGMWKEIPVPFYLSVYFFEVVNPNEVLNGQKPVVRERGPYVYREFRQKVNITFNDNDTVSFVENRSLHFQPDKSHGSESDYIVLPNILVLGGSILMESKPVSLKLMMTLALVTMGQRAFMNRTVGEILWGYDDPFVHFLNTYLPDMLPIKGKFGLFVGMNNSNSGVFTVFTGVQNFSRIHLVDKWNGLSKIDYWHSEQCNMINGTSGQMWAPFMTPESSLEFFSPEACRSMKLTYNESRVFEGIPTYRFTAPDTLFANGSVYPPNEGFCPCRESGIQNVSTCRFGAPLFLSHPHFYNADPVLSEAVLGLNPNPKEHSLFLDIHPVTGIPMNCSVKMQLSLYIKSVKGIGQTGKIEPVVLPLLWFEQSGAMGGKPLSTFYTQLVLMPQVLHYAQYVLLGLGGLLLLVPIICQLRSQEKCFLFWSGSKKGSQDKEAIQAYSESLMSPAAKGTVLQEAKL

AC50	Compound
0.293 µM	CC(C)NC(=O)Nc1ccc2c(c1)C(=O)N([C@H](C)CO)C[C@@H](C)[C@H](CN(C)S(=O)(=O)c1ccc(Cl)cc1)O2

Same assay, conditions: 3 h, at 35 µM (top of the series)

Compound	activity change, negative = inhibition
CC(C)NC(=O)Nc1ccc2c(c1)C(=O)N([C@H](C)CO[Si](C)(C)C(C)(C)C)C[C@@H](C)[C@H](CN(C)S(=O)(=O)c1ccc(Cl)cc1)O2	inactive
CNC[C@@H]1Oc2ccc(NC(=O)NC(C)C)cc2C(=O)N([C@H](C)CO[Si](C)(C)C(C)(C)C)C[C@H]1C	inactive
C=CCOC(=O)N(C)C[C@@H]1Oc2ccc(NC(=O)NC(C)C)cc2C(=O)N([C@H](C)CO[Si](C)(C)C(C)(C)C)C[C@H]1C	inactive
C[C@@H]1CN([C@H](C)CO)C(=O)c2cc(NC(=O)Nc3ccc(F)cc3)ccc2O[C@H]1CN(C)S(=O)(=O)c1ccc(Cl)cc1	inactive

More lines, now with the values ahead:

activity change, negative = inhibition	Compound
inactive	CC(C)NC(=O)Nc1ccc2c(c1)CC(=O)N([C@H](C)CO)C[C@@H](C)[C@H](CN(C)S(=O)(=O)c1ccc(Cl)cc1)O2
inactive	CC(C)NC(=O)Nc1cccc2c1O[C@@H](CN(C)S(=O)(=O)c1ccc(Cl)cc1)[C@H](C)CN([C@H](C)CO)C2=O
inactive	C=CCOC(=O)N(C)C[C@@H]1Oc2ccc(NC(=O)OCC3c4ccccc4-c4ccccc43)cc2C(=O)N([C@H](C)CO)C[C@H]1C
